Measured values as given in patent publication US12384775B2, “Pyrimid-2-yl-pyrazole compounds as IRAK inhibitors” (Rigel Pharmaceuticals, Inc., priority 2022, dated 2025).
Structures can show the parent of a compound that is named as a salt. Where two headings read alike, the source gives them in different places.

Key:
[1] = test system: IL23p19 in THP-1 Cells; assay: LPS induced IL23p19 in THP-1 cells (IFNγ primed), ELISA; assay type: cell-based; conditions: Homo sapiens, THP-1 cells IFNγ primed, LPS 1 μg/mL, 18 h, read-out: IL23-p19 ELISA, THP1-IFNy, LPS, 10 pt EC50
Experimental: On day 1, 50K/well THP-1 cells were seeded and primed with IFNγ (50 ng/mL) in 384-well plates for about 18 hours in RPMI media with 10% FBS. On day 2, the compound was serially diluted in DMSO from 5 mM in 3-fold dilutions, and then diluted 1:125 in RPMI media with 10% FBS. 50 μL/well 2× compound was added to 50 μL/well THP-1 cells (with IFNγ primed) in duplicate in 384 well tissue culture plates. The cells were pre-incubated with compound for 1 hour at 37° C., 5% CO2 before addition of 10 μL/well 11×LPS to give a final concentration of 1 μg/mL LPS. Day 3, after stimulation for 18 hours at 37° C., 5% CO2, the assay plate was centrifuged and 70 μL/well supernatant was harvested. IL-23p19 protein in 70 μL/well of supernatant was measured by sandwich ELISA, and 25 μl/well Cell Titer Glo reagent was added to the remaining cells to measure compound toxicity.
Maxisorp immuno ELISA plates were pre-coated with 25 μL/well of anti-IL-23p19 capture antibody (2.5 ug/mL) in PBS overnight at room temperature. After washing with 1×PBST, the plates were blocked using 100 μL/well of 1% BSA in PBS for 2 hours at room temperature. The plates were washed three times with 1×PBST and 70 μL/well supernatant were added. The plates were incubated at room temperature for 2 hours with shaking and washed three times with 1×PBST. 25 μL/well of biotin labeled anti-IL-12 (p40/p70) detection antibody (100 ng/mL) in PBS with 1% BSA was added and the plates were incubated at room temperature for 2 hours with shaking. After washing three times with 1× PBST, 25 μL/well of streptavidin-HRP (1:200) in PBS with 1% BSA was added and the plates were incubated at room temperature for 20 minutes with shaking. The plates were washed three times with 1× PBST and 25 μL/well of Super Signal ELISA Pico Chemiluminescent Substrate were added. The plates were read with a luminometer, and the chemiluminescence values were entered into Athena (Rigel) for curve fitting, EC50 calculation, and database storage.
THP-1 cells (100K in 100 μL/well) were primed with 25 ng/mL IFN-γ for 18 hours at 37° C., 5% CO2. Compound was serially diluted in DMSO from 2.5 mM in 4-fold dilutions, and then diluted 1:125 in RPMI 1640 complete media with 10% FBS. 100 μL/well 2× compound was mixed with the 100 μL/well IFN-7 primed THP-1 in 96 well flat-bottom white tissue culture plates. The cells were pre-incubated with compound for 1 hour at 37° C., 5% CO2 and before addition of 10 μL/well 21×LPS to give a final concentration of […] for LPS. The cells were stimulated with LPS for 18 hours at 37° C., 5% CO2. After centrifugation, 100 μL/well supernatant was extracted by using a multichannel pipette. IL-23p19 or TNF-α protein in the supernatant were measured by sandwich ELISA. The remaining IFN-7 primed THP-1 cell pellets were used to perform cell viability assays to determine compound cell toxicity. The plates were read with a luminometer, and the chemiluminescence values were entered into Athena (Rigel) for curve fitting, EC50 calculation, and database storage.
Maxisorp immuno ELISA plates were pre-coated with 100 μL/well of anti-IL-23p19 capture antibody (2.4 μg/mL) in PBS overnight at room temperature. After washing with 1×PBST, the plates were blocked using 300 μL/well of 1% BSA in PBS for 2 hours at room temperature. The plates were washed three times with 1×PBST and 100 μL/well supernatant was added. The plates were incubated at room temperature for 2 hours with shaking. The plates were washed three times with 1×PBST and 100 μL/well of biotin anti-human IL-12 (p40/70) detection antibody (10 ng/mL) in PBS with 0.1% BSA were added. The plates were incubated at room temperature for 2 hours with shaking. The plates were washed three times with 1×PBST and 100 μL/well streptavidin-HRP (1:200) in PBS with 0.1% BSA was added. The plates were incubated at room temperature for 20 minutes with shaking. […]

[2] = target: T1, IRAK4 (Homo sapiens, UniProt Q9NWZ3); assay: IRAK4 ADP-Glo kinase assay; assay type: biochemical; conditions: read-out: IRAK4 ADP-Glo Kinase, 8 pt EC50
T1 construct: purchased Signalchem I12-10G-20
T1 sequence (Q9NWZ3 1-460): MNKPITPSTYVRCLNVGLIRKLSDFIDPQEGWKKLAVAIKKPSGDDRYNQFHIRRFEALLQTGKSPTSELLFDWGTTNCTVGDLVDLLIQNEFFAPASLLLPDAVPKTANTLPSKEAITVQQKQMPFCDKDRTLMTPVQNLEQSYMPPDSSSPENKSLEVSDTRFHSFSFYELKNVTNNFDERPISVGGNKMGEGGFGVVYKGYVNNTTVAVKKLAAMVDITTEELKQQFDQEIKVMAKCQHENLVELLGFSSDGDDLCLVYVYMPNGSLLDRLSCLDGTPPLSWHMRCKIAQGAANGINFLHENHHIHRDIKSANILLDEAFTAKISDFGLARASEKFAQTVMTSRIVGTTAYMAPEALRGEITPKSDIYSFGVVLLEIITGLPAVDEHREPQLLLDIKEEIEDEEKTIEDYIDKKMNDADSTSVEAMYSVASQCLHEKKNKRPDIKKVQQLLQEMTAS
Experimental: The ADP-Glo™ reagents were thawed at ambient temperature. The Kinase Detection Reagent was prepared by mixing kinase detection buffer with the lyophilized kinase detection substrate, and set aside.
A stock volume of 5× Reaction Kinase Buffer was made with a final concentration of 100 mM MgCl2, 200 mM Tris-HCl, and 0.5 mg/ml of BSA, in distilled H2O with a final pH7.4. A 2× working stock volume of Reaction Kinase Buffer was made containing a final concentration of 100 μM DTT.
The components of IRAK4 Enzyme were thawed on ice. Diluted IRAK4 in 1× Kinase Reaction Buffer (diluted from 2× buffer) was prepared at […]. A 250 μM working stock ATP Assay Solution was prepared in 1× Kinase Reaction Buffer (diluted from 2× buffer).
The compound was diluted in DMSO from 250 µM in 4-fold series dilutions for 8 points. Then diluted 1:5 in 2× Reaction Buffer in a 96 well plate. 1.0 μl was transferred to a 384 well plate in duplicate. […] 1 μl of 1 mg/ml stock solution of MBP substrate was added NOTE: MBP can be combined with ATP mix with equal volume and then added at 2 μl/well. Final reaction volume was 5 μl. The plate was centrifuged and the reaction mixture was incubated at room temperature for 60 minutes or at 30° C. for 30 minutes.
The reaction was terminated and the remaining ATP was depleted by adding 5 μl of ADP-Glo™ Reagent. The 384-well plate was centrifuged and then the reaction mixture was incubated for another 40 minutes at ambient temperature.
10 μl of the Kinase Detection Reagent was added. The plate was centrifuged and then the reaction mixture was incubated for another 30 minutes at ambient temperature.
The 384-well reaction plate was read using the WALLAC plate reader (Luminescence 0.1s).

[3] = target: IRAK1 (Homo sapiens, UniProt P51617); assay: IRAK1 ADP-Glo kinase assay; assay type: biochemical; conditions: read-out: IRAK1 ADP-Glo Kinase, 8 pt EC50
Chain of IRAK1 (P51617 whole entry): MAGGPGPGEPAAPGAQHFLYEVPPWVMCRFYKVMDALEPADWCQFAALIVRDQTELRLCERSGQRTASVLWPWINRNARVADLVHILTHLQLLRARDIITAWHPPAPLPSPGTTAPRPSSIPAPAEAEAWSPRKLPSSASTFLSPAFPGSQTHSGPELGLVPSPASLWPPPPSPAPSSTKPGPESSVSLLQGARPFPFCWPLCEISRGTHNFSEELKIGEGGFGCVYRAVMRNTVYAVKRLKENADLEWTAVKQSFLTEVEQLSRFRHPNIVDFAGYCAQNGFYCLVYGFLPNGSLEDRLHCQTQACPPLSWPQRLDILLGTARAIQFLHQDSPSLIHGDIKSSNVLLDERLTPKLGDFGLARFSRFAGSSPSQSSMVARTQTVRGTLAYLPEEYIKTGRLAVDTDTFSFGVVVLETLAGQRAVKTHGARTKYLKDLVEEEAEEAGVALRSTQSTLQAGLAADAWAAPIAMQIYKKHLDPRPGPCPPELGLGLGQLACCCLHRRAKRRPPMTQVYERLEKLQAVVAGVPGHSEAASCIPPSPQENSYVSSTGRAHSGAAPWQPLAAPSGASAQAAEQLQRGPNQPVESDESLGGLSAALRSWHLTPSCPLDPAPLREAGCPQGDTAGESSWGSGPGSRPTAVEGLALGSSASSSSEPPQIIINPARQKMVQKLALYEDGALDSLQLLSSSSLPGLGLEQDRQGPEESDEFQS

[4] = Bioavailability of prodrug I-3, mouse; assay type: in vivo; conditions: measured as amount of parent compound I-1 detected
[5] = Bioavailability of prodrug I-3, rat; assay type: in vivo; conditions: measured as amount of parent compound I-1 detected
[6] = Bioavailability of prodrug I-3, monkey; assay type: in vivo; conditions: measured as amount of parent compound I-1 detected
[7] = Bioavailability of prodrug I-3, dog; assay type: in vivo; conditions: measured as amount of parent compound I-1 detected

Row | SMILES | EC50 [1] [nM] | EC50 [2] [nM] | EC50 [3] [nM] | EC50 ([1]; THP-1, 18 h) [nM] | Bioavailability (% F) of Compound I-3 [4] [% F] | Bioavailability (% F) of Compound I-3 [5] [% F] | Bioavailability (% F) of Compound I-3 [6] [% F] | Bioavailability (% F) of Compound I-3 [7] [% F]
1 | CCO[C@H]1CC[C@H](n2cc(NC(=O)c3csc(-c4cnn(COP(=O)(O)O)c4)n3)c(-c3ncccn3)n2)CC1 [Compound I-2, (4-(4-((1-((1r,4r)-4-ethoxycyclohexyl)-3-(pyrimidin-2-yl)-1H-pyrazol-4-yl)carbamoyl)thiazol-2-yl)-1H-pyrazol-1-yl)methyl dihydrogen phosphate] | 11 | 46.4 | 3910 |  |  |  |  | 
2 | CCO[C@H]1CC[C@H](n2cc(NC(=O)c3csc(-c4cnn(COP(=O)(O)O)c4)n3)c(-c3ncccn3)n2)CC1 [Compound I-3, sodium (4-(4-((1-((1r,4r)-4-ethoxycyclohexyl)-3-(pyrimidin-2-yl)-1H-pyrazol-4-yl)carbamoyl)thiazol-2-yl)-1H-pyrazol-1-yl)methyl phosphate] |  | 128 | 61.8 | 54.4 | 34 | 12 | 71 | 53
3 | CCO[C@H]1CC[C@H](n2cc(NC(=O)c3csc(-c4cn[nH]c4)n3)c(-c3ncccn3)n2)CC1 [Compound I-4, N-(1-((1r,4r)-4-ethoxycyclohexyl)-3-(pyrimidin-2-yl)-1H-pyrazol-4-yl)-2-(1H-pyrazol-4-yl)thiazole-4-carboxamide tartaric acid salt] |  | 18.8 | 28.1 | 2.5 |  |  |  | 
